Measured values taken from patent US7101915B1, “P-terphenyl compounds” (Shionogi & Co., Ltd., priority 1996, dated 2006).
≈ marks a conversion by molar mass, not a printed value. Marks after values point to notes of the source that are not given here.

How the values were obtained:
[1] = tested on: C3H/HeN mouse splenocytes stimulated with Concanavalin A (Con A); assay: Suppressive effect on mitogenic activity of mouse splenocytes in vitro, Con A as mitogen (MTT); format: cell-based; details: Con A 5 μg/ml as mitogen, 3 days; for IC50: Mus musculus, Splenocyte, 72 h, read-out: ConA IC50
Method: (§1) Experiment 1 Suppressive Effect on a Mitogenic Activity of Mouse Splenocytes In Vitro
(§2) In 96-well microtiter plate 5×10^5 C3H/HeN mouse splenocytes suspended in 0.1 ml of 10% fetal bovine serum-fortified RPMI 1640 medium containing 2 mM of sodium bicarbonate, 50 units/ml of penicillin, 50 μg/ml of streptomycin and 5×10^−5 M of 2-mercaptoethanol were added. Then, 5 μg/ml of Concanavalin A (Con A) or 10 μg/ml of lipopolysaccharide (LPS) as a mitogen and the compound of a pre-determined concentration of the present invention were added to each well so that a final volume of each well reached 0.2 ml. Each compound of the present invention was dissolved in dimethylsulfoxide (DMSO) and diluted with the above RPMI 1640 medium to adjust the final concentration of 100 ng/ml or less. The splenocytes in the 96-well microtiter plate were cultivated at 37° C. for 3 days in an incubator keeping the humidity 100%, carbon dioxide 5% and air 95%. Then, 25 μl of 6 mg/ml MTT [3-(4,5-dimethylthiazol-2-yl)-2,5-diphenyltetrazolium bromide] (Sigma) was added to the each well and cultivated at 37° C. for 4 hours under the same conditions. After the cultivation, 50 μl of 0.02 N hydrochloric acid in 20% sodium dodecyl sulfate (SDS) was added to formazan generated and left at 37° C. for 24 hours for dissolving formazan. An absorption intensity (OD) of formazan generated in proportion to the number of living cells was measured with an immunoreader (InterMed) equipped with a 570 nm filter (The Journal of Immunological Method, 65, 55-63, 1983). The 50% inhibitory concentration of a cell proliferation (IC 50) was calculated from a correlation between the concentration of the compound of the present invention and the absorption intensity.

[2] = tested on: C3H/HeN mouse splenocytes stimulated with lipopolysaccharide (LPS); assay: Suppressive effect on mitogenic activity of mouse splenocytes in vitro, LPS as mitogen (MTT); format: cell-based; details: LPS 10 μg/ml as mitogen, 3 days; for IC50: Mus musculus, Splenocyte, 72 h
Method: as §1, §2

[3] = tested on: mouse thymoma strain EL4 cells; assay: Anti-proliferative activity on EL4 cells (MTT); format: cell-based; details: 3 days; for IC50: Mus musculus, 72 h, read-out: EL-4 IC50
Method: Experiment 2 Anti-Proliferative Activity on EL4 Cells
In 96-well microtiter plate 4×10^4/0.1 ml of mouse thymoma strain EL4 cells were added and 0.1 ml of the compound of the present invention was added to the mixture so that the concentration was in the range of 0-5,000 ng/ml. After the cultivation for 3 days, the IC50 was calculated by the MTT method as described in Experiment 1.

[4] = tested on: IL-2 production of mouse T cell strain EL-4 (TPA); assay: Suppressive effect on the cytokine production of mouse T cell strain EL-4: IL-2; format: cell-based; details: EL-4, TPA 10 ng/ml, 24 hours, ELISA
Method: (§3) Experiment 8 Suppressive Effect on the Cytokine Production of a Mouse T Cell Strain EL-4 In 48-well plate were added 2×10^5 mouse T cell strain EL-4 which were suspended in 0.2 ml of 1% fetal bovine serum-added RPMI 1640 medium (2 mM of sodium bicarbonate, 50 units/ml of penicillin, 50 μg/ml of streptomycin and 5×10^−5 M of 2-mercaptoethanol were added) and the compound of the present invention of a predetermined concentration. TPA was added as a cell stimulater at a final concentration of 10 ng/ml to adjust a final volume of each well to 0.4 ml. Each compound of the present invention was dissolved in DMSO and diluted with the above RPMI 1640 medium, and then for added at a final concentration of 100 ng/ml or less. The cells in the 48-well plate were cultivated in an incubator keeping the humidity 100%, carbon dioxide 5% and air 95% at 37° C. for 24 hours to collect a supernatant of each well. The amount of IL-2, IL-4 and IL-5 released in the medium of each well were measured with the ELISA kit (Amersham K. K.) to be taken as an index of the cytokine production of the cells. TPA free group (-TPA) was used as a control.

[5] = tested on: IL-4 production of mouse T cell strain EL-4 (TPA); assay: Suppressive effect on the cytokine production of mouse T cell strain EL-4: IL-4; format: cell-based; details: EL-4, TPA 10 ng/ml, 24 hours, ELISA
Method: as §3

[6] = tested on: IL-5 production of mouse T cell strain EL-4 (TPA); assay: Suppressive effect on the cytokine production of mouse T cell strain EL-4: IL-5; format: cell-based; details: EL-4, TPA 10 ng/ml, 24 hours, ELISA
Method: as §3

[7] = tested on: anti-OVA IgE antibody titer (PCA titer); assay: Suppressive effect on the IgE production against ovalbumin (OVA), PCA titer; format: in vivo, BALB/c mice; details: untreated group 9-12
Method: Experiment 4 Suppressive Effect on the IgE Production Against Ovalbumin (OVA)
BALB/c mice (female, 8-10 weeks old) and Wistar rats (female, 8-10 weeks old) which were bought from Japan SLC, Inc. (Shizuoka) were used.
BALB/c mice were immunized by an intraperitoneal administration of 0.2 ml suspension of 2 μg of ovalbumin (OVA) and 2 mg of aluminium hydroxide gel in physiological saline. After 10 days, blood was drawn from hearts, sera were separated and stocked at −40° C. till the measurement of an IgE antibody titer.
After the compound of the present invention was dissolved or suspended in N, N-dimethylacetoamide, the mixture was diluted 20 times with miglyol 812 neutral oil. The obtained solution was orally administered to mice at 0.1 ml per mouse. The administration was continued for 10 days from the immunizing day to the day before drawing blood. IPD-1151-T (a compound described in Jpn. Pharmacol. (1993) 61, 31–39) and a compound No. 36 (a compound 36 described in J. Med. Chem. (1997) 40: 395–407) were examined as controls by the same method.
4) Measurement of Anti-OVA IgE Antibody Titer (PCA Titer)
The samples 2-fold diluted with physiological saline were prepared from the obtained mouse serum and each 50 μl of the solution was intradermally injected to backs of Wistar rats which previously hair cut. After 24 hours, a passive cutaneous anaphylaxis reaction (PCA) was induced by an intravenous injection of 0.5 ml of physiological saline containing 1 mg of OVA and 5 mg of Evans' blue dye. After 30 minutes, the rats were sacrified and the highest dilution rate of the serum giving bluing with a diameter of more than 5 mm was recorded as the PCA titer. For example, when a serum is positive for the PCA reaction till […], the anti-OVA IgE antibody titer of the mouse is defined as 7.

[8] = tested on: BGG-specific IgE in a serum; assay: Suppressive effect on the antibody production against bovine γ globulin (BGG), sandwich ELISA; format: in vivo, BALB/c mice; details: 100 mg/kg p.o. every day, serum after 21 days
Method: Experiment 3 Suppressive Effect on the Antibody Production Against Bovine γ Globulin (BGG)
On an immunizing day and 7 days after, 50 μg of BGG was subcutaneously inoculated to backs of BALB/c mice (male, 6-8 weeks old) for inducing an immune reaction. After the compound of the present invention was dissolved or suspended in N, N-dimethylacetoamide, the mixture was diluted with miglyol 812 neutral oil. A proper volume of the compound was orally administered (p.o.) to mice every day from the next day of the immunizing. A two hundredth weight to body weight of miglyol was administered to mice in a control group. After 21 days, blood was drawn from each mouse and a serum was separated. BGG-specific IgE in a serum was measured by the sandwich ELISA method using a BGG-coating plate. The suppressive rate of IgE production was calculated from the dilution rate of the serum which has the same absorption intensity as that of the control group for judging the effect of the compound of the present invention.

SMILES	ConA IC50 [1] [µg/mL]	LPS IC50 [2] [µg/mL]	EL-4 IC50 [3] [µg/mL]	also measured
COc1ccccc1-c1cc(OC)c(-c2ccc(OCC=C(C)C)c(O)c2)c(O)c1OC [Compound I-276]	0.0018	0.0031	0.2	–
COc1cc(-c2ccc(O)cc2)c(OC)c(O)c1-c1ccc(OC/C=C(/C)CO)c(O)c1 [Compound I-299]	0.00553	0.00785	0.0136	–
C#CC(O)COc1ccc(-c2c(OC)cc(-c3ccc(O)cc3)c(OC)c2O)cc1O (stereo not shown) [Compound I-301]	0.00706	0.011	0.0158	IC50 IL-2 [4]: 0.5 µg/mL (≈ 1.18 µM); IC50 IL-4 [5]: <0.01 µg/mL; IC50 IL-5 [6]: 0.12 µg/mL (≈ 0.284 µM)
COc1cc(-c2ccc(N(C)C)cc2)c(OC)c(OS(C)(=O)=O)c1-c1ccc(OCc2ccccc2)c(O)c1 [Compound I-360]	<0.02	<0.02	0.0998	–
COc1cc(-c2ccc(C(C)C)cc2)c(OC)c(OS(C)(=O)=O)c1-c1ccc(OCc2ccccc2)c(O)c1 [Compound I-361]	<0.02	<0.02	0.124	–
COc1cc(-c2ccc(OCc3ccccc3)c(N)c2)c(OC)cc1-c1ccc(OS(C)(=O)=O)cc1 [Compound I-418]	0.255	0.497	>10	–
COc1cc(-c2ccc(NCC=C(C)C)c(F)c2)c(OC)cc1-c1ccc(N(C)C)cc1 [Compound I-484]	0.0147	0.0322	0.0914	PCA Titer ([7]; 40 mg/kg orally for 10 days): <0
COc1cc(-c2c(OC)cc(-c3ccc(O)cc3)c(OC)c2CO)ccc1OCC=C(C)C [Compound I-513]	0.00689	0.0111	0.0618	–
CC(C)=CCOc1ccc(-c2cc(C)c(-c3ccc(O)cc3)cc2C)cc1O [Compound I-525]	0.00076	0.00111	0.005	Suppressive rate of antigen-specific IgE [8]: >95%
CC(C)=CCNc1ccc(-c2cc(C)c(-c3ccc(N(C)C)cc3)cc2C)cc1F [Compound I-925]	–	–	–	PCA Titer ([7]; 40 mg/kg orally for 10 days): 1**; melting point: 100 to 102 °C
COc1cc(-c2ccc(O)cc2)c(OC)c(O)c1-c1ccc(OCC=C(Br)Br)c(O)c1 [Compound I-931]	–	–	–	IC50 [1]: 0.00293 µg/mL (≈ 0.00531 µM); IC50 [2]: 0.00576 µg/mL (≈ 0.0104 µM); IC50 [3]: 0.00437 µg/mL (≈ 0.00791 µM); melting point: 166 to 168 °C
COc1cc(-c2c(O)c(OC)c(-c3ccc(O)cc3)c(F)c2OC)ccc1OCC=C(C)C [Compound I-1107]	–	–	–	IC50 [1]: 0.0058 µg/mL (≈ 0.0128 µM); IC50 [2]: 0.0091 µg/mL (≈ 0.02 µM); IC50 [3]: 0.0341 µg/mL (≈ 0.075 µM)
CCOCC(O)COc1ccc(NC(=O)CC[S+](C)C)cc1.Cc1ccc(S(=O)(=O)[O-])cc1 (stereo not shown) [IPD-1151-T, Suplatast Tosilate, reference compound]	–	–	–	PCA Titer ([7]; 50 mg/kg orally for 10 days): 9.8
O=C(Cc1ccc(Oc2ccc3cc(OCc4ccccc4)ccc3c2)cc1)Nc1ccccc1C(=O)O [No.36]	–	–	–	PCA Titer ([7]; 10 mg/kg orally for 10 days): 10.4
